# From PubChem BioAssay AID1919016 (Molecular Pharmacology Branch, DTP, NCI, 2023)
# System: NCI-H196 complex spheroid growth, percent test/control
# Experiment: Anticancer human tumor NCI-H196 cell line growth inhibition [AhR];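 further: seven days of drug exposure starting three days after plating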;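 on viability, T/C: 100% = DMSO vehicle control wells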
# Settings: for IC50: curve of first compound; for viability, T/C: stronger effect = lower value
# Method in brief: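 Agents were dosed in half-log steps down from roughly clinical Cmax, or from 10 microM where Cmax was unknown, alone and with AhR antagonists. Read-out: percent test/control growth of tumor spheroids containing HUVEC and MSC stromal cells.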
# [1] = second compound 0.1 µM, first compound 0.000949 µM
# [2] = second compound 0.1 µM, first compound 0.003 µM
# [3] = second compound 0.1 µM, first compound 0.00949 µM
# [4] = second compound 0.1 µM, first compound 0.03 µM
# [5] = second compound 0.1 µM, first compound 0.0949 µM
# [6] = second compound 0.1 µM, first compound 0.3 µM
# [7] = second compound 0.316 µM, first compound 0.000949 µM
# [8] = second compound 0.316 µM, first compound 0.003 µM
# [9] = second compound 0.316 µM, first compound 0.00949 µM
# [10] = second compound 0.316 µM, first compound 0.03 µM
# [11] = second compound 0.316 µM, first compound 0.0949 µM
# [12] = second compound 0.316 µM, first compound 0.3 µM
# [13] = second compound 1 µM, first compound 0.000949 µM
# [14] = second compound 1 µM, first compound 0.003 µM
# [15] = second compound 1 µM, first compound 0.00949 µM
# [16] = second compound 1 µM, first compound 0.03 µM
# [17] = second compound 1 µM, first compound 0.0949 µM
# [18] = second compound 1 µM, first compound 0.3 µM
# [19] = second compound 3.16 µM, first compound 0.000949 µM
# [20] = second compound 3.16 µM, first compound 0.003 µM
# [21] = second compound 3.16 µM, first compound 0.00949 µM
# [22] = second compound 3.16 µM, first compound 0.03 µM
# [23] = second compound 3.16 µM, first compound 0.0949 µM
# [24] = second compound 3.16 µM, first compound 0.3 µM
# [25] = second compound 10 µM, first compound 0.000949 µM
# [26] = second compound 10 µM, first compound 0.003 µM
# [27] = second compound 10 µM, first compound 0.00949 µM
# [28] = second compound 10 µM, first compound 0.03 µM
# [29] = second compound 10 µM, first compound 0.0949 µM
# [30] = second compound 10 µM, first compound 0.3 µM
compound,measurement,setting,value
CC(C)CC(NC(=O)C(Cc1ccccc1)NC(=O)c1cnccn1)B(O)O (stereo not given) + Cc1cncc(-c2nc(NCCc3c[nH]c4ccccc34)c3ncn(C(C)C)c3n2)c1,IC50,second compound 0.1 µM,7.65 nM
same,IC50,second compound 0.316 µM,8.51 nM
same,IC50,second compound 1 µM,7.35 nM
same,IC50,second compound 3.16 µM,9.9 nM
same,IC50,second compound 10 µM,5.54 nM
same,"viability, T/C",[1],98.2%
same,"viability, T/C",[2],109%
same,"viability, T/C",[3],37.6%
same,"viability, T/C",[4],1.78%
same,"viability, T/C",[5],1.16%
same,"viability, T/C",[6],1.38%
same,"viability, T/C",[7],95.2%
same,"viability, T/C",[8],99.1%
same,"viability, T/C",[9],45%
same,"viability, T/C",[10],1.25%
same,"viability, T/C",[11],2.43%
same,"viability, T/C",[12],1.51%
same,"viability, T/C",[13],102%
same,"viability, T/C",[14],98.7%
same,"viability, T/C",[15],36.1%
same,"viability, T/C",[16],1.32%
same,"viability, T/C",[17],1.62%
same,"viability, T/C",[18],0.94%
same,"viability, T/C",[19],105%
same,"viability, T/C",[20],103%
same,"viability, T/C",[21],51.9%
same,"viability, T/C",[22],0.84%
same,"viability, T/C",[23],0.89%
same,"viability, T/C",[24],2.1%
same,"viability, T/C",[25],83.2%
same,"viability, T/C",[26],95%
same,"viability, T/C",[27],15.8%
same,"viability, T/C",[28],0.72%
same,"viability, T/C",[29],0.96%
same,"viability, T/C",[30],1.09%
CCc1c2c(nc3ccc(O)cc13)-c1cc3c(c(=O)n1C2)COC(=O)[C@]3(O)CC + Cc1cncc(-c2nc(NCCc3c[nH]c4ccccc34)c3ncn(C(C)C)c3n2)c1,IC50,second compound 0.1 µM,> 300 nM
same,IC50,second compound 0.316 µM,> 300 nM
same,IC50,second compound 1 µM,> 300 nM
same,IC50,second compound 3.16 µM,> 300 nM
same,IC50,second compound 10 µM,104 nM
same,"viability, T/C",[1],99.9%
same,"viability, T/C",[2],102%
same,"viability, T/C",[3],104%
same,"viability, T/C",[4],102%
same,"viability, T/C",[5],87.6%
same,"viability, T/C",[6],78.5%
same,"viability, T/C",[7],91.3%
same,"viability, T/C",[8],91.9%
same,"viability, T/C",[9],96%
same,"viability, T/C",[10],100%
same,"viability, T/C",[11],77.2%
same,"viability, T/C",[12],74.2%
same,"viability, T/C",[13],99.3%
same,"viability, T/C",[14],109%
same,"viability, T/C",[15],116%
same,"viability, T/C",[16],102%
same,"viability, T/C",[17],96.9%
same,"viability, T/C",[18],57.8%
same,"viability, T/C",[19],96.9%
same,"viability, T/C",[20],102%
same,"viability, T/C",[21],92.4%
same,"viability, T/C",[22],85.6%
same,"viability, T/C",[23],86.7%
same,"viability, T/C",[24],52.5%
same,"viability, T/C",[25],82.9%
same,"viability, T/C",[26],88.5%
same,"viability, T/C",[27],90%
same,"viability, T/C",[28],65.5%
same,"viability, T/C",[29],54.6%
same,"viability, T/C",[30],30.5%
COc1cc(Nc2ncc3c(n2)-c2ccc(Cl)cc2C(c2c(F)cccc2OC)=NC3)ccc1C(=O)O + Cc1cncc(-c2nc(NCCc3c[nH]c4ccccc34)c3ncn(C(C)C)c3n2)c1,IC50,second compound 0.1 µM,> 10000 nM
same,IC50,second compound 0.316 µM,> 10000 nM
same,IC50,second compound 1 µM,> 10000 nM
same,IC50,second compound 3.16 µM,> 10000 nM
same,IC50,second compound 10 µM,> 10000 nM
same,"viability, T/C","second compound 0.1 µM, first compound 0.0316 µM",96%
same,"viability, T/C","second compound 0.1 µM, first compound 0.1 µM",99.5%
same,"viability, T/C","second compound 0.1 µM, first compound 0.316 µM",98.4%
same,"viability, T/C","second compound 0.1 µM, first compound 1 µM",103%
same,"viability, T/C","second compound 0.1 µM, first compound 3.16 µM",118%
same,"viability, T/C","second compound 0.1 µM, first compound 10 µM",153%
same,"viability, T/C","second compound 0.316 µM, first compound 0.0316 µM",98.7%
same,"viability, T/C","second compound 0.316 µM, first compound 0.1 µM",94.3%
same,"viability, T/C","second compound 0.316 µM, first compound 0.316 µM",109%
same,"viability, T/C","second compound 0.316 µM, first compound 1 µM",111%
same,"viability, T/C","second compound 0.316 µM, first compound 3.16 µM",131%
same,"viability, T/C","second compound 0.316 µM, first compound 10 µM",129%
same,"viability, T/C","second compound 1 µM, first compound 0.0316 µM",94.1%
same,"viability, T/C","second compound 1 µM, first compound 0.1 µM",102%
same,"viability, T/C","second compound 1 µM, first compound 0.316 µM",120%
same,"viability, T/C","second compound 1 µM, first compound 1 µM",114%
same,"viability, T/C","second compound 1 µM, first compound 3.16 µM",104%
same,"viability, T/C","second compound 1 µM, first compound 10 µM",148%
same,"viability, T/C","second compound 3.16 µM, first compound 0.0316 µM",101%
same,"viability, T/C","second compound 3.16 µM, first compound 0.1 µM",104%
same,"viability, T/C","second compound 3.16 µM, first compound 0.316 µM",127%
same,"viability, T/C","second compound 3.16 µM, first compound 1 µM",115%
same,"viability, T/C","second compound 3.16 µM, first compound 3.16 µM",118%
same,"viability, T/C","second compound 3.16 µM, first compound 10 µM",145%
same,"viability, T/C","second compound 10 µM, first compound 0.0316 µM",83.1%
same,"viability, T/C","second compound 10 µM, first compound 0.1 µM",91.8%
same,"viability, T/C","second compound 10 µM, first compound 0.316 µM",106%
same,"viability, T/C","second compound 10 µM, first compound 1 µM",97.7%
same,"viability, T/C","second compound 10 µM, first compound 3.16 µM",104%
same,"viability, T/C","second compound 10 µM, first compound 10 µM",143%
